Values joined by “and” are separate entries in the source; they are usually repeats but may differ in a detail not shown here. Equal values may be shown once. Toxic doses and inconclusive results are not listed.
Tested on: L1210 leukemia ip in BDF1 mice, survival T/C
Experiment: NCI In Vivo Anticancer Drug Screen. Data for tumor model L1210 Leukemia (intraperitoneal) in B6D2F1 (BDF1) mice
Conditions: endpoint: mean survival time, higher = longer survival
Method in brief: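 Transplanted-tumor mice were given test agent; controls received vehicle only. Survival readings from the two groups were divided (treated over control).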

[1] = dose: 100.0 mg/kg/injection, schedule: Q01DX009 (ip), vehicle: Klucel (hydroxypropylcellulose) (HPC)
[2] = dose: 100.0 mg/kg/injection, schedule: Q04DX003 (ip), vehicle: Klucel (hydroxypropylcellulose) (HPC)
[3] = dose: 200.0 mg/kg/injection, schedule: Q01DX009 (ip), vehicle: Klucel (hydroxypropylcellulose) (HPC)
[4] = dose: 200.0 mg/kg/injection, schedule: Q04DX003 (ip), vehicle: Klucel (hydroxypropylcellulose) (HPC)
[5] = dose: 400.0 mg/kg/injection, schedule: Q04DX003 (ip), vehicle: Klucel (hydroxypropylcellulose) (HPC)

Structure (SMILES): COc1cccc(NC(=O)c2ccc(C(=O)Nc3cccc(OC)c3)cc2)c1
- T/C (dose: 50.0 mg/kg/injection, schedule: Q01DX001 (ip), vehicle: saline): 98 % of control
- T/C (dose: 100.0 mg/kg/injection, schedule: Q01DX001 (ip), vehicle: saline): 96 % of control
- T/C (dose: 200.0 mg/kg/injection, schedule: Q01DX001 (ip), vehicle: saline): 91 % of control

Structure (SMILES): COc1ccc(CNC(C)(C)CO)c(OC)c1
- T/C (dose: 75.0 mg/kg/injection, schedule: Q01DX001 (ip), vehicle: saline): 101 % of control
- T/C (dose: 150.0 mg/kg/injection, schedule: Q01DX001 (ip), vehicle: saline): 102 % of control
- T/C (dose: 300.0 mg/kg/injection, schedule: Q01DX001 (ip), vehicle: saline): 98 % of control

Structure (SMILES): O=C(C[n+]1ccccc1)N/N=C/c1ccc(O)c(O)c1
- T/C (dose: 50.0 mg/kg/injection, schedule: Q01DX009 (ip), vehicle: saline with Tween-80): 104 % of control
- T/C (dose: 100.0 mg/kg/injection, schedule: Q01DX009 (ip), vehicle: saline with Tween-80): 106 % of control
- T/C (dose: 100.0 mg/kg/injection, schedule: Q04DX003 (ip), vehicle: saline with Tween-80): 110 % of control
- T/C (dose: 200.0 mg/kg/injection, schedule: Q01DX009 (ip), vehicle: saline with Tween-80): 117 % of control
- T/C (dose: 200.0 mg/kg/injection, schedule: Q04DX003 (ip), vehicle: saline with Tween-80): 110 % of control

Structure (SMILES): C[C@H](CCC(=O)O)[C@H]1CC[C@H]2[C@@H]3[C@H](O)C[C@@H]4C[C@H](O)CC[C@]4(C)[C@H]3C[C@H](O)[C@]12C (tested in a mixture with another compound)
- T/C (dose: 37.5 mg/kg/injection, schedule: Q01DX009 (ip), vehicle: saline): 107 % of control
- T/C (dose: 50.0 mg/kg/injection, schedule: Q04DX003 (ip), vehicle: other): 105 % of control
- T/C (dose: 75.0 mg/kg/injection, schedule: Q01DX009 (ip), vehicle: saline): 111 % of control
- T/C (dose: 77.0 mg/kg/injection, schedule: Q01DX Z (ip), vehicle: methylcellulose (MC)): 105 % of control
- T/C (dose: 80.0 mg/kg/injection, schedule: Q01DX009 (ip), vehicle: other): 97 % of control
- T/C (dose: 80.0 mg/kg/injection, schedule: Q01DX009 (ip), vehicle: saline): 115 % of control
- T/C (dose: 80.0 mg/kg/injection, schedule: Q01DX Z (ip), vehicle: saline): 111 % of control
- T/C (dose: 100.0 mg/kg/injection, schedule: Q01DX001 (ip), vehicle: alcohol): 96 % of control
- T/C (dose: 100.0 mg/kg/injection, schedule: Q04DX003 (ip), vehicle: other): 97 % of control
- T/C (dose: 116.0 mg/kg/injection, schedule: Q01DX Z (ip), vehicle: methylcellulose (MC)): 115 % of control
- T/C (dose: 120.0 mg/kg/injection, schedule: Q01DX009 (ip), vehicle: other): 118 % of control
- T/C (dose: 120.0 mg/kg/injection, schedule: Q01DX Z (ip), vehicle: saline): 152 % of control
- T/C (dose: 150.0 mg/kg/injection, schedule: Q01DX009 (ip), vehicle: saline): 88 % of control
- T/C (dose: 180.0 mg/kg/injection, schedule: Q01DX009 (ip), vehicle: other): 115 % of control
- T/C (dose: 180.0 mg/kg/injection, schedule: Q01DX Z (ip), vehicle: methylcellulose (MC)): 115 % of control
- T/C (dose: 180.0 mg/kg/injection, schedule: Q01DX Z (ip), vehicle: saline): 179 % of control
- T/C (dose: 198.0 mg/kg/injection, schedule: Q04DX003 (ip), vehicle: other): 115 % of control
- T/C (dose: 200.0 mg/kg/injection, schedule: Q01DX001 (ip), vehicle: alcohol): 92 % of control
- T/C (dose: 200.0 mg/kg/injection, schedule: Q04DX003 (ip), vehicle: other): 105 % of control
- T/C (dose: 263.0 mg/kg/injection, schedule: Q01DX Z (ip), vehicle: methylcellulose (MC)): 96 % of control
- T/C (dose: 270.0 mg/kg/injection, schedule: Q01DX Z (ip), vehicle: saline): 114 % of control

Structure (SMILES): CO/N=C1\CC(C)N2C(=O)C(C(C)C)NC(=O)C(NC(=O)c3c4nc5c(C(=O)NC6C(=O)NC(C(C)C)C(=O)N7C(C)CC(O)C7C(=O)N(C)CC(=O)N(C)C(C(C)C)C(=O)OC6C)ccc(C)c5oc-4c(C)c(=O)c3N)C(CO)OC(=O)C(C)N(C)C(=O)CN(C)C(=O)C12 (configuration not stated)
- T/C (dose: 0.1 mg/kg/injection, schedule: Q01DX009 (ip), vehicle: saline + alcohol): 96 % of control
- T/C (dose: 0.2 mg/kg/injection, schedule: Q01DX009 (ip), vehicle: saline + alcohol): 102 % of control
- T/C (dose: 0.3 mg/kg/injection, schedule: Q04DX003 (ip), vehicle: saline + alcohol): 96 % of control
- T/C (dose: 0.4 mg/kg/injection, schedule: Q01DX009 (ip), vehicle: saline + alcohol): 97 % of control
- T/C (dose: 0.6 mg/kg/injection, schedule: Q04DX003 (ip), vehicle: saline + alcohol): 107 % of control
- T/C (dose: 0.8 mg/kg/injection, schedule: Q01DX001 (ip), vehicle: saline + alcohol): 97 % of control
- T/C (dose: 0.8 mg/kg/injection, schedule: Q01DX009 (ip), vehicle: saline + alcohol): 111 % of control
- T/C (dose: 1.2 mg/kg/injection, schedule: Q04DX003 (ip), vehicle: saline + alcohol): 97 % of control
- T/C (dose: 1.6 mg/kg/injection, schedule: Q01DX001 (ip), vehicle: saline + alcohol): 103 % of control
- T/C (dose: 1.6 mg/kg/injection, schedule: Q01DX009 (ip), vehicle: saline + alcohol): 100 % of control
- T/C (dose: 2.4 mg/kg/injection, schedule: Q04DX003 (ip), vehicle: saline + alcohol): 112 % of control
- T/C (dose: 3.2 mg/kg/injection, schedule: Q01DX001 (ip), vehicle: saline + alcohol): 110 % of control
- T/C (dose: 4.8 mg/kg/injection, schedule: Q04DX003 (ip), vehicle: saline + alcohol): 110 % of control
- T/C (dose: 6.4 mg/kg/injection, schedule: Q01DX001 (ip), vehicle: saline + alcohol): 106 % of control
- T/C (dose: 12.8 mg/kg/injection, schedule: Q01DX001 (ip), vehicle: saline + alcohol): 101 % of control

Structure (SMILES): CC1(c2ccccc2)CC1(Br)Br (configuration not stated)
- T/C (dose: 100.0 mg/kg/injection, schedule: Q04DX002 (ip), vehicle: saline): 95 % of control
- T/C (dose: 200.0 mg/kg/injection, schedule: Q04DX002 (ip), vehicle: saline): 95 % of control
- T/C (dose: 400.0 mg/kg/injection, schedule: Q04DX002 (ip), vehicle: saline): 100 % of control

Structure (SMILES): COC(=O)C1=C(C(=O)OC)[C@H]2O[C@H]1[C@@H]1O[C@@H]12
- T/C (dose: 6.25 mg/kg/injection, schedule: Q01DX009 (ip), vehicle: saline): 104 % of control
- T/C (dose: 12.5 mg/kg/injection, schedule: Q01DX001 (ip), vehicle: saline): 99 % of control
- T/C (dose: 12.5 mg/kg/injection, schedule: Q01DX009 (ip), vehicle: saline): 100 % of control
- T/C (dose: 25.0 mg/kg/injection, schedule: Q01DX001 (ip), vehicle: saline): 100 % of control

Structure (SMILES): CCCC[P+](CCCC)(CCCC)Cc1ccc(C(=O)Oc2ccc([N+](=O)[O-])cc2)cc1
- T/C (dose: 25.0 mg/kg/injection, schedule: Q01DX009 (ip), vehicle: Klucel (hydroxypropylcellulose) (HPC)): 98 % of control
- T/C (dose: 25.0 mg/kg/injection, schedule: Q04DX003 (ip), vehicle: Klucel (hydroxypropylcellulose) (HPC)): 91 % of control
- T/C (dose: 50.0 mg/kg/injection, schedule: Q01DX009 (ip), vehicle: Klucel (hydroxypropylcellulose) (HPC)): 89 % of control
- T/C (dose: 50.0 mg/kg/injection, schedule: Q04DX003 (ip), vehicle: Klucel (hydroxypropylcellulose) (HPC)): 93 % of control
- T/C [1]: 102 % of control
- T/C [2]: 96 % of control and 88 % of control

Structure (SMILES): N#CC(C#N)=Cc1ccco1
- T/C (dose: 5.0 mg/kg/injection, schedule: Q01DX001 (ip), vehicle: saline): 91 % of control
- T/C (dose: 10.0 mg/kg/injection, schedule: Q01DX001 (ip), vehicle: saline): 102 % of control
- T/C (dose: 20.0 mg/kg/injection, schedule: Q01DX001 (ip), vehicle: saline): 100 % of control
- T/C (dose: 40.0 mg/kg/injection, schedule: Q01DX001 (ip), vehicle: saline): 94 % of control

Structure (SMILES): O=C(O)C(CSC(c1ccccc1)(c1ccccc1)c1ccccc1)NSc1ccccc1[N+](=O)[O-] (configuration not stated)
- T/C [1]: 114 % of control
- T/C [2]: 98 % of control
- T/C (dose: 175.0 mg/kg/injection, schedule: Q01DX009 (ip), vehicle: Klucel (hydroxypropylcellulose) (HPC)): 98 % of control
- T/C [3]: 121 % of control
- T/C [4]: 102 % of control
- T/C (dose: 265.0 mg/kg/injection, schedule: Q01DX009 (ip), vehicle: Klucel (hydroxypropylcellulose) (HPC)): 100 % of control
- T/C (dose: 400.0 mg/kg/injection, schedule: Q01DX009 (ip), vehicle: Klucel (hydroxypropylcellulose) (HPC)): 110 % of control
- T/C [5]: 95 % of control

Structure (SMILES): O=C(O)C1c2ccccc2Cc2ccccc21
- T/C [1]: 110 % of control
- T/C [2]: 103 % of control
- T/C [3]: 101 % of control
- T/C [4]: 97 % of control
- T/C [5]: 106 % of control
